Data from patent publication US9441012B2, “Fluorinated epoxyketone-based compounds and uses thereof as proteasome inhibitors” (FLUORINOV PHARMA INC., priority 2012, dated 2016).

Tests used:
Assay in all cases: NCI 60 human tumor cell line screen (SRB)
Type in all cases: cell-based
OVCAR-8 = OVCAR-8 (Ovarian Cancer); 48 h
From the text: (§1) Representative compounds of Formula I were screened using the National Cancer Institute (NCI) screening panel, which consists of a panel of 60 different human tumor cell lines, representing leukemia [CCRF-CEM, HL-60 (TB), K-562, MOLT-4, SR], melanoma [LOX IMVI, MALME-3M, M14, SMDA-MB-435, SK-MEL-2, SK-MEL-28, SK-MEL-5, UACC-257 and UACC-62] and cancers of the lung [A549/ATCC, EKVX, HOP-62, HOP-93, NCI-H226, NCI-H23, NCI-H322M, NCI-H460], colon [COLO 205, HCT-116, HCT-15, HT29, KM12, SW-620], brain [SF-268, SF-295, SF-539, SNB-19, SNB-75, U251], ovary [IGROV1, OVCAR-3, OVCAR-4, OVCAR-5, OVCAR-8, NCI/ADR-RES, SK-OV-3], breast [MCF7, MDA-MB-231, BT-549, T-47D, MDA-MB-468], prostate [PC-3, DU-145], and renal[786-0, A498, ACHN, CAKI-1, RXF-393, SN12C, TK-10, UO-31] cancers.
(§2) After 24 h, two plates of each cell line are fixed in situ with TCA, to represent a measurement of the cell population for each cell line at the time of drug addition (Tz). Experimental drugs are solubilised in dimethyl sulfoxide at 400-fold the desired final maximum test concentration and stored frozen prior to use. At the time of drug addition, an aliquot of frozen concentrate is thawed and diluted to twice the desired final maximum test concentration with complete medium containing 50 μg/ml gentamicin. Additional four, 10-fold or ½ log serial dilutions are made to provide a total of five drug concentrations plus control. Aliquots of 100 μl of these different drug dilutions are added to the appropriate microtiter wells already containing 100 μl of medium, resulting in the required final drug concentrations.
(§3) Following drug addition, the plates are incubated for an additional 48 h at 37° C., 5% CO2, 95% air, and 100% relative humidity. For adherent cells, the assay is terminated by the addition of cold TCA (trichloroacetic acid). Cells are fixed in situ by the gentle addition of 50 μl of cold 50% (w/v) TCA (final concentration, 10% TCA) and incubated for 60 minutes at 4° C. The supernatant is discarded, and the plates are washed five times with tap water and air dried. Sulforhodamine B (SRB) solution (100 μl) at 0.4% (w/v) in 1% acetic acid is added to each well, and plates are incubated for 10 minutes at room temperature. After staining, unbound dye is removed by washing five times with 1% acetic acid and the plates are air dried. Bound stain is subsequently solubilised with 10 mM trizma base, and the absorbance is read on an automated plate reader at a wavelength of 515 nm. For suspension cells, the methodology is the same except that the assay is terminated by fixing settled cells at the bottom of the wells by gently adding 50 μl of 80% TCA (final concentration, 16% TCA). Using the seven absorbance measurements [time zero, (Tz), control growth, (C), and test growth in the presence of drug at the five concentration levels (Ti)], the percentage growth is calculated at each of the drug concentration levels. Percentage growth inhibition is calculated as: [(Ti−Tz)/(C−Tz)]×100 for concentrations in which Ti>/=Tz and [(Ti−Tz)/Tz]×100 for concentrations in which Ti<Tz.
(§4) Three dose response parameters are calculated for each experimental agent. Growth inhibition of 50% (GI50) is calculated from [(Ti−Tz)/(C−Tz)]100=50, which is the drug concentration resulting in a 50% reduction in the net protein increase (as measured by SRB staining) in control cells during the drug incubation. The drug concentration resulting in total growth inhibition (TGI) is calculated from Ti=Tz. The LC50 (concentration of drug resulting in a 50% reduction in the measured protein at the end of the drug treatment as compared to that at the beginning) indicating a net loss of cells following treatment is calculated from [(Ti−Tz)/Tz]×100=−50. Values are calculated for each of these three parameters if the level of activity is reached. However, if the effect is not reached or is exceeded, the value for that parameter is expressed as greater or less than the maximum or minimum concentration tested.

RPMI-8226 = RPMI-8226 (Leukemia); 48 h
From the text: as §1, §2, §3, §4

DU-145 = DU-145 (Prostate Cancer); 48 h
From the text: as §1, §2, §3, §4

SF-539 = SF-539 (CNS Cancer); 48 h
From the text: as §1, §2, §3, §4

OVCAR-4 = OVCAR-4 (Ovarian Cancer); 48 h
From the text: as §1, §2, §3, §4

NCI/ADR-RES = NCI/ADR-RES (Ovarian Cancer); 48 h
From the text: as §1, §2, §3, §4

SNB-19 = SNB-19 (CNS Cancer); 48 h
From the text: as §1, §2, §3, §4

HOP-92 = HOP-92 (Non-Small Cell Lung Cancer); 48 h
From the text: as §1, §2, §3, §4

SK-OV-3 = SK-OV-3 (Ovarian Cancer); 48 h
From the text: as §1, §2, §3, §4

HCC-2998 = HCC-2998 (Colon Cancer); 48 h
From the text: as §1, §2, §3, §4

U251 = U251 (CNS Cancer); 48 h
From the text: as §1, §2, §3, §4

A549/ATCC = A549/ATCC (Non-Small Cell Lung Cancer); 48 h
From the text: as §1, §2, §3, §4

CC(C)C[C@H](NC(=O)[C@H](Cc1ccccc1)NC(=O)[C@H](COC(F)F)NC(=O)CN1CCOCC1)C(=O)[C@@]1(C)CO1 [Example 25, (2S)-2-[[(2S)-3-(difluoromethoxy)-2-[(2-morpholinoacetyl)amino]propanoyl]amino]-N-[(1S)-3-methyl-1-[(2R)-2-methyloxirane-2-carbonyl]butyl]-3-phenyl-propanamide]
Log10GI50 (OVCAR-8): −7.32
Log10LC50 (OVCAR-8): >−4.00
Log10TGI50 (OVCAR-8): −6.41
Log10GI50 (RPMI-8226): −7.52
Log10LC50 (RPMI-8226): >−4.00
Log10TGI50 (RPMI-8226): −7.04
Log10GI50 (DU-145): −7.27
Log10LC50 (DU-145): >−4.00
Log10TGI50 (DU-145): −5.32
Log10GI50 (SF-539): −7.63
Log10LC50 (SF-539): −6.48
Log10TGI50 (SF-539): −7.26
Log10GI50 (OVCAR-4): −7.50
Log10LC50 (OVCAR-4): >−4.00
Log10TGI50 (OVCAR-4): −6.75
Log10GI50 (NCI/ADR-RES): −5.82
Log10LC50 (NCI/ADR-RES): >−4.00
Log10TGI50 (NCI/ADR-RES): >−4.00
Log10GI50 (SNB-19): −7.23
Log10LC50 (SNB-19): >−4.00
Log10TGI50 (SNB-19): >−4.00
Log10GI50 (HOP-92): −7.65
Log10LC50 (HOP-92): −6.35
Log10TGI50 (HOP-92): −7.16
Log10GI50 (SK-OV-3): −7.30
Log10TGI50 (SK-OV-3): −6.60
Log10GI50 (HCC-2998): −7.74
Log10LC50 (HCC-2998): −7.20
Log10TGI50 (HCC-2998): −7.47
Log10GI50 (U251): −7.44
Log10LC50 (U251): >−4.00
Log10TGI50 (U251): −6.75
Log10GI50 (A549/ATCC): −7.41
Log10LC50 (A549/ATCC): >−4.00
Log10TGI50 (A549/ATCC): −6.13

C[C@]1(C(=O)[C@H](Cc2ccccc2)NC(=O)[C@H](Cc2ccccc2)NC(=O)[C@H](COC(F)F)NC(=O)CN2CCOCC2)CO1 [Example 29]
Log10GI50 (OVCAR-8): −6.59
Log10LC50 (OVCAR-8): >−4.00
Log10TGI50 (OVCAR-8): >−4.00
Log10GI50 (RPMI-8226): −7.40
Log10LC50 (RPMI-8226): >−4.00
Log10TGI50 (RPMI-8226): −6.43
Log10GI50 (DU-145): −7.00
Log10LC50 (DU-145): −4.09
Log10TGI50 (DU-145): −5.05
Log10GI50 (SF-539): −7.39
Log10LC50 (SF-539): −4.49
Log10TGI50 (SF-539): −6.76
Log10GI50 (OVCAR-4): −6.98
Log10TGI50 (OVCAR-4): >−4.00
Log10GI50 (NCI/ADR-RES): −5.58
Log10LC50 (NCI/ADR-RES): >−4.00
Log10TGI50 (NCI/ADR-RES): >−4.00
Log10GI50 (SNB-19): −6.51
Log10LC50 (SNB-19): >−4.00
Log10TGI50 (SNB-19): >−4.00
Log10GI50 (HOP-92): −7.18
Log10LC50 (HOP-92): −6.03
Log10TGI50 (HOP-92): −6.55
Log10GI50 (SK-OV-3): −6.46
Log10LC50 (SK-OV-3): >−4.00
Log10TGI50 (SK-OV-3): −5.78
Log10GI50 (HCC-2998): −6.80
Log10LC50 (HCC-2998): −6.21
Log10TGI50 (HCC-2998): −6.50
Log10GI50 (U251): −6.98
Log10LC50 (U251): >−4.00
Log10TGI50 (U251): −5.70
Log10GI50 (A549/ATCC): −6.68
Log10LC50 (A549/ATCC): >−4.00
Log10TGI50 (A549/ATCC): >−4.00

Cc1ncc(C(=O)N[C@@H](COC(F)F)C(=O)N[C@@H](COC(F)F)C(=O)N[C@@H](Cc2ccccc2)C(=O)[C@@]2(C)CO2)s1 [Example 1, 2-methyl-thiazole-5-carboxylic acid ((S)-1-{(S)-1-[(S)-1-benzyl-2-((R)-2-methyloxiranyl)-2-oxo-ethylcarbamoyl]-2-difluoromethoxyethylcarbamoyl}-2-difluoromethoxyethyl)-amide]
Log10GI50 (OVCAR-8): −5.80
Log10LC50 (OVCAR-8): >−4.00
Log10TGI50 (OVCAR-8): >−4.00
Log10GI50 (RPMI-8226): −7.40
Log10LC50 (RPMI-8226): >−4.00
Log10TGI50 (RPMI-8226): −4.86
Log10GI50 (DU-145): −6.58
Log10LC50 (DU-145): −5.02
Log10TGI50 (DU-145): −5.64
Log10GI50 (SF-539): −7.15
Log10LC50 (SF-539): −4.27
Log10TGI50 (SF-539): −6.44
Log10GI50 (OVCAR-4): −6.29
Log10LC50 (OVCAR-4): >−4.00
Log10TGI50 (OVCAR-4): >−4.00
Log10GI50 (NCI/ADR-RES): −5.11
Log10LC50 (NCI/ADR-RES): >−4.00
Log10TGI50 (NCI/ADR-RES): −4.23
Log10GI50 (SNB-19): −6.49
Log10LC50 (SNB-19): >−4.00
Log10TGI50 (SNB-19): >−4.00
Log10GI50 (HOP-92): −6.23
Log10LC50 (HOP-92): −4.39
Log10TGI50 (HOP-92): −5.40
Log10GI50 (SK-OV-3): −6.06
Log10LC50 (SK-OV-3): >−4.00
Log10TGI50 (SK-OV-3): >−4.00
Log10GI50 (HCC-2998): −6.74
Log10LC50 (HCC-2998): −6.15
Log10TGI50 (HCC-2998): −6.45
Log10GI50 (U251): −6.55
Log10LC50 (U251): >−4.00
Log10TGI50 (U251): −4.94
Log10GI50 (A549/ATCC): −6.41
Log10LC50 (A549/ATCC): >−4.00
Log10TGI50 (A549/ATCC): >−4.00

C[C@]1(C(=O)[C@H](Cc2ccccc2)NC(=O)[C@H](COC(F)F)NC(=O)[C@H](COC(F)F)NC(=O)CN2CCOCC2)CO1 [Example 26, (S)-N-{(S)-1-[(S)-1-Benzyl-2-((R)-2-methyl-oxiranyl)-2-oxo-ethylcarbamoyl]-2-difluoromethoxyethyl}-3-difluoromethoxy-2-(2-morpholin-4-yl-acetylamino)-propio-namide]
Log10GI50 (OVCAR-8): −7.32
Log10LC50 (OVCAR-8): >−4.00
Log10TGI50 (OVCAR-8): −6.41
Log10GI50 (RPMI-8226): −7.52
Log10LC50 (RPMI-8226): >−4.00
Log10TGI50 (RPMI-8226): −7.04
Log10GI50 (DU-145): −7.27
Log10LC50 (DU-145): >−4.00
Log10TGI50 (DU-145): −5.32
Log10GI50 (SF-539): −7.63
Log10LC50 (SF-539): −6.48
Log10TGI50 (SF-539): −7.26
Log10GI50 (OVCAR-4): −7.50
Log10LC50 (OVCAR-4): >−4.00
Log10TGI50 (OVCAR-4): −6.75
Log10GI50 (NCI/ADR-RES): −5.82
Log10LC50 (NCI/ADR-RES): >−4.00
Log10TGI50 (NCI/ADR-RES): >−4.00
Log10GI50 (SNB-19): −7.23
Log10LC50 (SNB-19): >−4.00
Log10TGI50 (SNB-19): >−4.00
Log10GI50 (HOP-92): −7.65
Log10LC50 (HOP-92): −6.35
Log10TGI50 (HOP-92): −7.16
Log10GI50 (SK-OV-3): −7.30
Log10TGI50 (SK-OV-3): −6.60
Log10GI50 (HCC-2998): −7.74
Log10LC50 (HCC-2998): −7.20
Log10TGI50 (HCC-2998): −7.47
Log10GI50 (U251): −7.44
Log10LC50 (U251): >−4.00
Log10TGI50 (U251): −6.75
Log10GI50 (A549/ATCC): −7.41
Log10LC50 (A549/ATCC): >−4.00
Log10TGI50 (A549/ATCC): −6.13
